{"source": "patent US6107333A", "about": "(priority 1999, dated 2000)", "key": {"[1]": {"conditions": "for Stability (in words) / Degradation over first 60 days (in words): 25 mg/ml; for Stability of use-formulation (in words): aqueous lipid emulsion as terminal solvent", "experimental": "To study the physical and chemical stability of the various parenteral formulations, 3 sets of studies were performed: […]\nThe various formulations were analyzed by HPLC immediately after mixing, then hourly for 8 hours, and then at gradually increasing time intervals for more than 10 days, depending on the initial rate of degradation in the respective solvent system.\nDifferent aliquots were stored at 4° C., 22° C., 40° C., and 60° C. […] Immediately after solubilization and at various intervals up to more than 50 days, aliquots from different samples were analyzed by HPLC."}, "erythrocytes": {"test_system": "erythrocytes", "assay": "Hemolysis studies in vitro", "type": "cell-based", "conditions": "drug concentrations up to and exceeding 50 μg/ml; 4 hours at 37° C.", "experimental": "The procedure of Parthasarathy et al. was used to examine the hemolytic potential of a few selected preparations and the LD50 values of the most optimal formulation was constructed as described (Parthasarathy et al., 1994). Heparinized blood was mixed with an equal volume of Alsever's solution. […] These mixtures were then incubated for 4 hours at 37° C. At the end of the incubation, the cells were pelleted at 10,000×gin an Eppendorf micro-centrifuge and the release of hemoglobin in the supernatant (ie., hemolysis) was determined spectrophotometrically at 550 nm. Maximum lysis was measured against a reference solution of erythrocytes that had been completely lysed by hypotonic shock. The hemolytic potential of the \"optimal\" complete formulation was evaluated as described (Parthasarathy et al., 1994) and the data were plotted as the fraction of healthy cells versus 1n (total volume percent). Total volume percent was defined as the volume percent of the vehicle in the mixture after dilution with blood. This was done to simulate the dilution of the respective drug formulation in the blood stream after parenteral administration."}, "[2]": {"test_system": "ovarian and mammary carcinomas", "conditions": "clinical testing; cited from earlier work"}, "[3]": {"assay": "Solubility of paclitaxel in various solvents (HPLC)", "type": "physicochemical", "experimental": "A known amount of the drug, as a powder (two different aliquots of purified drug were obtained from Xechem Inc. New Brunswick, N.J.), was equilibrated in the respective solvent at RT (22° C.) over 1 hour. An aliquot was then removed and diluted in MeOH prior to HPLC at predetermined times. […] Different solvent systems were evaluated relative to the above estimates of necessary solubility to arrive at a clinically relevant stable stock formulation. This stock formulation would then be diluted with a \"final solvent\" to yield a complete stable clinical working formulation of 1-5 mg/ml, that could be infused parenterally. The final solvent was selected from one of the commonly utilized parental infusion fluids, NS, 5% dextrose in water or a parenterally acceptable aqueous lipid emulsion (e.g., Intralipid), all of which are readily available and approved for parenteral administration.\nAn excess of paclitaxel as a powder was added to DMA, DMSO, PEG, and PG at RT. Each mixture was placed in a dark environment and checked visually for up to 1 hour for evidence of solubilization."}, "[4]": {"assay": "Paclitaxel plasma concentration after iv injection in rats", "type": "in vivo, male Sprague-Dawley rats", "conditions": "3 mg/kg iv", "experimental": "For the in vivo study, male Sprague-Dawley rats with a body weight of 250-300 g were used. They were bought from the Harlan-Sprague-Dawley local breeding facility in Houston, Tex. The animals were allowed a minimum of 3-4 days to accommodate to the change of environment after shipping to the MD Anderson Cancer Center. All animals were allowed free access to commercial feed and tap water prior to and during the pharmacological study. The dose of 3 mg/kg was determined as the highest dose that could be given to the rats as a slow iv injection of the Cremophor® EL based preparation without a lethal anaphylactoid reaction in the absence of pharmacological premedication.\nThis avoided the possible influence of induction of microsomal liver enzymes which could alter drug metabolism/elimination and influence (the later part of) the plasma concentration curve. For the same reason, all animals were unanesthesized and only physically restrained during the drug injection. The drug concentration of the injected use-formulation was confirmed by HPLC prior to use. […] The blood was centrifuged at 1,000×g for 10 min and the plasma was separated and stored at -80° C. until extracted and assayed by HPLC as described above."}}, "note": "“Also recorded” adds a separate entry of the source. Like-named read-outs stand apart in the source and are kept apart here.", "data": [{"smiles": "CC(=O)O[C@H]1C(=O)[C@@]2(C)[C@H]([C@H](OC(=O)c3ccccc3)[C@]3(O)C[C@H](OC(=O)[C@H](O)[C@@H](NC(=O)c4ccccc4)c4ccccc4)C(C)=C1C3(C)C)[C@]1(OC(C)=O)CO[C@@H]1C[C@@H]2O", "note": "[Paclitaxel]", "values": [{"measurement": "Time within which significant degradation took place", "setting": "[1]", "result": "4 to 6", "unit": "h"}, {"measurement": "Time without discernible degradation", "setting": "[1]", "result": "more than 4.5 months"}, {"measurement": "Stability (in words)", "setting": "[1]; room temperature", "result": "stable at 25 mg/ml for several months at room temperature"}, {"measurement": "Concentration of stable solution", "setting": "[1]; DMA with PEG added (stock solution)", "result": 25000, "unit": "µg/mL"}, {"measurement": "Degradation over first 60 days (in words)", "setting": "[1]; DMA:PEG (1:3, v/v) stock, 4° C.", "result": "did not show any significant degradation"}, {"measurement": "Stability (in words)", "setting": "[1]; DMA:PEG (1:3, v/v) stock, 4° C., 4.5 months", "result": "overlapping with that recorded for the samples stored at RT"}, {"measurement": "Degradation over first 60 days (in words)", "setting": "[1]; DMA:PEG (1:3, v/v) stock, 40° C.", "result": "did not show any significant degradation"}, {"measurement": "Degradation over first 60 days (in words)", "setting": "[1]; DMA:PEG (1:3, v/v) stock, RT", "result": "did not show any significant degradation"}, {"measurement": "Stability of use-formulation (in words)", "setting": "[1]; 1 mg/ml, 4° C.", "result": "stable at 1 mg/ml and at 5 mg/ml for over one week"}, {"measurement": "Stability of use-formulation (in words)", "setting": "[1]; 1 mg/ml, RT", "result": "stable at 1 mg/ml and at 5 mg/ml for over one week"}, {"measurement": "Stability of use-formulation (in words)", "setting": "[1]; 5 mg/ml, 4° C.", "result": "stable at 1 mg/ml and at 5 mg/ml for over one week"}, {"measurement": "Stability of use-formulation (in words)", "setting": "[1]; 5 mg/ml, RT", "result": "stable at 1 mg/ml and at 5 mg/ml for over one week"}, {"measurement": "Degradation on storage (in words)", "setting": "[1]; in DMA, >100 mg/ml, RT", "result": "started degrading slowly after storage over night at RT"}, {"measurement": "Paclitaxel dependent lysis (in words)", "setting": "erythrocytes", "result": "barely notable above background"}, {"measurement": "Antitumor activity (in words)", "setting": "[2]", "result": "impressive activity against ovarian and mammary carcinomas"}, {"measurement": "solubility", "setting": "[3]; 5% dextrose, solvent 5% dextrose, 60 min at room temperature, read-out: Solubility", "result": "< 100", "unit": "µg/mL"}, {"measurement": "Solubility (in words)", "setting": "[3]; PEG-400, PG, NS, Intralipid and 5% dextrose, RT", "result": "did not yield any significant concentrations of solubilized drug"}, {"measurement": "solubility", "setting": "[3]; dma, organic solvent or mixture, solvent DMA, RT, read-out: Solubility", "result": "> 200000", "unit": "µg/mL"}, {"measurement": "solubility", "setting": "[3]; dmso, organic solvent or mixture, solvent DMSO, RT, read-out: Solubility", "result": "> 100000", "unit": "µg/mL"}, {"measurement": "solubility", "setting": "[3]; intralipid, solvent Intralipid, 60 min at room temperature, read-out: Solubility", "result": "< 100", "unit": "µg/mL"}, {"measurement": "Solubility (in words)", "setting": "[3]; most of the aqueous solvents", "result": "insoluble in most of the aqueous solvents"}, {"measurement": "solubility", "setting": "[3]; normal saline, solvent normal saline, 60 min at room temperature, read-out: Solubility", "result": "< 100", "unit": "µg/mL"}, {"measurement": "solubility", "setting": "[3]; peg, organic solvent or mixture, solvent PEG, 60 min at room temperature, read-out: Solubility", "result": "< 100", "unit": "µg/mL"}, {"measurement": "solubility", "setting": "[3]; propylene glycol, organic solvent or mixture, solvent propylene glycol, 60 min at room temperature, read-out: Solubility", "result": "< 100", "unit": "µg/mL"}, {"measurement": "solubility", "setting": "[3]; solvent DMA, RT", "result": "> 100000", "unit": "µg/mL"}, {"measurement": "Paclitaxel plasma concentrations (in words)", "setting": "[4]", "result": "clearly cytocidal concentrations of paclitaxel are maintained for many hours; also recorded: clearly reach, and for extended time, remain in the antineoplastic range"}]}]}
